Reference: patent US6706663B2, “Herbicidal 3-heterocyclic substituted benzisothiazole and benzisoxazole compounds” (Wyeth, priority 2000, dated 2004)

What was measured:
[1] = system: MOOVA (Monochoria vaginalis); experiment: Flooded paddy, preemergence weed control; type: in vivo, Presl.; details: rated 3-4 weeks after treatment, 0-9 rating scale
Method in brief: (§1)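 Under paddy conditions, seeds or vegetative propagules go into the top 0.5 cm of silt loam; the soil is then flooded to 1.5–3 cm and kept so. Treated pots stay in a greenhouse; response is rated 0-9 visually versus control.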

[2] = system: ABUTH (Abutilon theophrasti); experiment: Preemergence herbicidal evaluation; type: in vivo, Medic.; details: rated 4-5 weeks after treatment
[3] = system: CHEAL (Chenopodium album); experiment: Preemergence herbicidal evaluation; type: in vivo, L.; details: rated 4-5 weeks after treatment
Method in brief: (§2)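 Steps: mix seeds with potting soil; plant on ~1 inch soil per cup; spray compound in aqueous acetone; hold on greenhouse benches with routine watering; rate 0–9 visually against control at 4–5 weeks.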

[4] = system: CASOB (Cassia obtusifolia); experiment: Preemergence herbicidal evaluation; type: in vivo, L.; details: rated 4-5 weeks after treatment
Method in brief: as §2

[5] = system: AMBEL (Ambrosia artemisifolia); experiment: Preemergence herbicidal evaluation; type: in vivo, L.; details: rated 4-5 weeks after treatment
Method in brief: as §2

ZEAMX (Corn, Field) = experiment: Preemergence herbicidal evaluation; type: in vivo, Zea mays, L.; details: rated 4-5 weeks after treatment
SETVI (Setaria viridis) = experiment: Postemergence herbicidal evaluation; type: in vivo, (L.) Beau; details: postemergence
Method in brief: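 ~2-wk seedlings; spray 0.0040–1.000 kg/ha in 50/50 acetone/water + 0.5% TWEEN 20, 40 psi nozzle. Greenhouse hold; visual 0–9 rating vs control at 4–5 wk; multiple tests averaged.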

[6] = system: IPOHE (Ipomoea hederacea); experiment: Preemergence herbicidal evaluation; type: in vivo, (L.) Jacq.; details: rated 4-5 weeks after treatment
[7] = system: ECHORC (Echinochloa oryzoides); experiment: Flooded paddy, preemergence weed control; type: in vivo, Echinochloa oryzoides (Ard.) Fritsch.; details: rated 3-4 weeks after treatment, 0-9 rating scale
Method in brief: as §1

[8] = system: ECHCG (Echinochloa crus-galli); experiment: Postemergence herbicidal evaluation; type: in vivo, (L.) Beau; details: postemergence
Method in brief: (§3)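 Visual 0–9 injury scores versus control plants, covering stand, vigour, malformation, size, chlorosis and general appearance, taken four to five weeks post-spray and averaged over replicate tests. Plants were sprayed at roughly two weeks old and held on greenhouse benches.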

[9] = system: SAGPY (Sagittaria pygmaea); experiment: Flooded paddy, preemergence weed control; type: in vivo, L.; details: rated 3-4 weeks after treatment, 0-9 rating scale
Method in brief: as §1

[10] = system: TRZAWR (Wheat, Winter, cv Riband); experiment: Postemergence herbicidal evaluation; type: in vivo, Triticum aestivum; details: postemergence
Method in brief: as §3

[11] = system: GLXMAW (Soybean, Williams); experiment: Preemergence herbicidal evaluation; type: in vivo, Glycine max, (L.) Merr. cv Williams; details: rated 4-5 weeks after treatment
CYPIR (Cyperus iria) = experiment: Flooded paddy, preemergence weed control; type: in vivo; details: rated 3-4 weeks after treatment, 0-9 rating scale
Method in brief: as §1

ORYSAT (Rice, Tebonnet) = experiment: Flooded paddy, post-transplant rice tolerance; type: in vivo, Oryza sativa, (L.) Tebonnet; details: flooded paddy, post-transplant rice, rated 3-4 weeks after treatment, 0-9 rating scale
Method in brief: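 Steps: transplant two ten-day-old seedlings into silt loam; flood to 1.5-3 cm above soil; apply herbicide post-transplant; maintain water on greenhouse benches; rate stand, vigor, malformation, size and chlorosis on a 0-9 visual scale versus control.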

Structure (SMILES): Cn1c(C(F)(F)F)cc(=O)n(-c2ccc3snc(C4OCC(c5ccccc5)O4)c3c2)c1=O (stereo not drawn) [Compound 78, 1-methyl-3-[3-(4-phenyl-1,3-dioxolan-2-yl)-1,2-benzisothiazol-5-yl]-6-(trifluoromethyl)uracil]
- herbicidal rating, MOOVA ([1]; rate 0.0080 kg/ha): 7.7
- herbicidal rating, MOOVA ([1]; rate 0.0320 kg/ha): 9.0
- herbicidal rating, MOOVA ([1]; rate 0.1250 kg/ha): 9.0
- Preemergence herbicidal rating ABUTH ([2]; Rate 0.0620 kg/ha): 9.0
- Preemergence herbicidal rating ABUTH ([2]; Rate 0.1250 kg/ha): 9.0
- Preemergence herbicidal rating ABUTH ([2]; Rate 0.2500 kg/ha): 9.0
- Preemergence herbicidal rating CHEAL ([3]; Rate 0.0620 kg/ha): 9.0
- Preemergence herbicidal rating CHEAL ([3]; Rate 0.1250 kg/ha): 9.0
- Preemergence herbicidal rating CHEAL ([3]; Rate 0.2500 kg/ha): 9.0
- Preemergence herbicidal rating CASOB ([4]; Rate 0.0620 kg/ha): 2.0
- Preemergence herbicidal rating CASOB ([4]; Rate 0.1250 kg/ha): 4.0
- Preemergence herbicidal rating CASOB ([4]; Rate 0.2500 kg/ha): 6.0
- Preemergence herbicidal rating AMBEL ([5]; Rate 0.0620 kg/ha): 9.0
- Preemergence herbicidal rating AMBEL ([5]; Rate 0.1250 kg/ha): 9.0
- Preemergence herbicidal rating AMBEL ([5]; Rate 0.2500 kg/ha): 9.0
- Preemergence herbicidal rating ZEAMX (ZEAMX (Corn, Field); Rate 0.0620 kg/ha): 3.0
- Preemergence herbicidal rating ZEAMX (ZEAMX (Corn, Field); Rate 0.1250 kg/ha): 3.5
- Preemergence herbicidal rating ZEAMX (ZEAMX (Corn, Field); Rate 0.2500 kg/ha): 6.0
- SETVI herbicidal rating (SETVI (Setaria viridis); rate 0.0320 kg/ha): 7.0
- SETVI herbicidal rating (SETVI (Setaria viridis); rate 0.0620 kg/ha): 9.0
- Preemergence herbicidal rating IPOHE ([6]; Rate 0.0620 kg/ha): 2.0
- Preemergence herbicidal rating IPOHE ([6]; Rate 0.1250 kg/ha): 5.0
- Preemergence herbicidal rating IPOHE ([6]; Rate 0.2500 kg/ha): 6.0
- herbicidal rating, ECHORC ([7]; rate 0.0080 kg/ha): 8.0
- herbicidal rating, ECHORC ([7]; rate 0.0320 kg/ha): 9.0
- herbicidal rating, ECHORC ([7]; rate 0.1250 kg/ha): 9.0
- ECHCG herbicidal rating ([8]; rate 0.0320 kg/ha): 2.0
- ECHCG herbicidal rating ([8]; rate 0.0620 kg/ha): 3.0
- herbicidal rating, SAGPY ([9]; rate 0.0080 kg/ha): 0.0
- herbicidal rating, SAGPY ([9]; rate 0.0320 kg/ha): 1.0
- herbicidal rating, SAGPY ([9]; rate 0.1250 kg/ha): 9.0
- TRZAWR herbicidal rating ([10]; rate 0.0320 kg/ha): 3.5
- TRZAWR herbicidal rating ([10]; rate 0.0620 kg/ha): 5.0
- Preemergence herbicidal rating GLXMAW ([11]; Rate 0.0620 kg/ha): 2.5
- Preemergence herbicidal rating GLXMAW ([11]; Rate 0.1250 kg/ha): 6.0
- Preemergence herbicidal rating GLXMAW ([11]; Rate 0.2500 kg/ha): 5.0
- herbicidal rating, CYPIR (CYPIR (Cyperus iria); rate 0.0080 kg/ha): 0.0
- herbicidal rating, CYPIR (CYPIR (Cyperus iria); rate 0.0320 kg/ha): 9.0
- herbicidal rating, CYPIR (CYPIR (Cyperus iria); rate 0.1250 kg/ha): 9.0
- herbicidal rating, ORYSAT (rice tolerance) (ORYSAT (Rice, Tebonnet); rate 0.0080 kg/ha): 4.0
- herbicidal rating, ORYSAT (rice tolerance) (ORYSAT (Rice, Tebonnet); rate 0.0320 kg/ha): 5.7
- herbicidal rating, ORYSAT (rice tolerance) (ORYSAT (Rice, Tebonnet); rate 0.1250 kg/ha): 8.5

Structure (SMILES): Cn1c(C(F)(F)F)cc(=O)n(-c2ccc3snc(-c4sccc4CBr)c3c2)c1=O [Compound 80, 3-[3-[3-(bromomethyl)-2-thienyl]-1,2-benzisothiazol-5-yl]-1-methyl-6-(trifluoromethyl)uracil]
- herbicidal rating, MOOVA ([1]; rate 0.0080 kg/ha): 0.0
- herbicidal rating, MOOVA ([1]; rate 0.0320 kg/ha): 9.0
- herbicidal rating, MOOVA ([1]; rate 0.1250 kg/ha): 9.0
- Preemergence herbicidal rating ABUTH ([2]; Rate 0.0620 kg/ha): 4.0
- Preemergence herbicidal rating ABUTH ([2]; Rate 0.1250 kg/ha): 9.0
- Preemergence herbicidal rating ABUTH ([2]; Rate 0.2500 kg/ha): 9.0
- Preemergence herbicidal rating CHEAL ([3]; Rate 0.0620 kg/ha): 5.5
- Preemergence herbicidal rating CHEAL ([3]; Rate 0.1250 kg/ha): 7.5
- Preemergence herbicidal rating CHEAL ([3]; Rate 0.2500 kg/ha): 9.0
- Preemergence herbicidal rating CASOB ([4]; Rate 0.0620 kg/ha): 0.0
- Preemergence herbicidal rating CASOB ([4]; Rate 0.1250 kg/ha): 0.0
- Preemergence herbicidal rating CASOB ([4]; Rate 0.2500 kg/ha): 1.5
- Preemergence herbicidal rating AMBEL ([5]; Rate 0.0620 kg/ha): 5.0
- Preemergence herbicidal rating AMBEL ([5]; Rate 0.1250 kg/ha): 9.0
- Preemergence herbicidal rating AMBEL ([5]; Rate 0.2500 kg/ha): 9.0
- Preemergence herbicidal rating ZEAMX (ZEAMX (Corn, Field); Rate 0.0620 kg/ha): 0.5
- Preemergence herbicidal rating ZEAMX (ZEAMX (Corn, Field); Rate 0.1250 kg/ha): 1.5
- Preemergence herbicidal rating ZEAMX (ZEAMX (Corn, Field); Rate 0.2500 kg/ha): 2.5
- SETVI herbicidal rating (SETVI (Setaria viridis); rate 0.0320 kg/ha): 2.0
- SETVI herbicidal rating (SETVI (Setaria viridis); rate 0.0620 kg/ha): 3.0
- Preemergence herbicidal rating IPOHE ([6]; Rate 0.0620 kg/ha): 0.5
- Preemergence herbicidal rating IPOHE ([6]; Rate 0.1250 kg/ha): 2.0
- Preemergence herbicidal rating IPOHE ([6]; Rate 0.2500 kg/ha): 4.0
- herbicidal rating, ECHORC ([7]; rate 0.0080 kg/ha): 1.0
- herbicidal rating, ECHORC ([7]; rate 0.0320 kg/ha): 4.0
- herbicidal rating, ECHORC ([7]; rate 0.1250 kg/ha): 8.0
- ECHCG herbicidal rating ([8]; rate 0.0320 kg/ha): 0.0
- ECHCG herbicidal rating ([8]; rate 0.0620 kg/ha): 0.0
- herbicidal rating, SAGPY ([9]; rate 0.0080 kg/ha): 0.0
- herbicidal rating, SAGPY ([9]; rate 0.0320 kg/ha): 4.5
- herbicidal rating, SAGPY ([9]; rate 0.1250 kg/ha): 7.0
- TRZAWR herbicidal rating ([10]; rate 0.0320 kg/ha): 3.0
- TRZAWR herbicidal rating ([10]; rate 0.0620 kg/ha): 3.5
- Preemergence herbicidal rating GLXMAW ([11]; Rate 0.0620 kg/ha): 0.5
- Preemergence herbicidal rating GLXMAW ([11]; Rate 0.1250 kg/ha): 0.5
- Preemergence herbicidal rating GLXMAW ([11]; Rate 0.2500 kg/ha): 6.0
- herbicidal rating, CYPIR (CYPIR (Cyperus iria); rate 0.0080 kg/ha): 0.0
- herbicidal rating, CYPIR (CYPIR (Cyperus iria); rate 0.0320 kg/ha): 4.5
- herbicidal rating, CYPIR (CYPIR (Cyperus iria); rate 0.1250 kg/ha): 9.0
- herbicidal rating, ORYSAT (rice tolerance) (ORYSAT (Rice, Tebonnet); rate 0.0080 kg/ha): 2.5
- herbicidal rating, ORYSAT (rice tolerance) (ORYSAT (Rice, Tebonnet); rate 0.0320 kg/ha): 5.5
- herbicidal rating, ORYSAT (rice tolerance) (ORYSAT (Rice, Tebonnet); rate 0.1250 kg/ha): 8.0
